From BindingDB's records for doi:10.1016/j.bmc.2016.08.020 (University of British Columbia, 2016) come the findings set out here.

Each structure is given as a SMILES string.

The nature of this assay: Activation of p75NTR in mouse hippocampal neurons assessed as increase in cell survival after 48 hrs by MTT assay. In general terms: Tetrazolium dyes change colour on reduction, which living cells bring about.

Take `CCC(C)C(N)C(=O)NCCN1CCOCC1` (stereo unspecified): the EC50 – broadly, the midpoint of the concentration-response curve – turned out to be 20 nM.
